Patent publication US11827582B2, “Substituted amines as disrupters of ABETA42 oligomer formation” (ACELOT, INC., priority 2017, dated 2023)
pEC50, pIC50: −log10 of the molar value. Like-named read-outs stand apart in the source and are kept apart here.

Tests used:
[1] = target: Human Ether-á-go-go-Related-Gene channel (hERG) (Homo sapiens, UniProt Q12809); experiment: hERG cellular patch-clamp assay (cardiac toxicity)
Description: Contract laboratories provided screening of hERG ion channel cell lines as an indicator of cardiac safety. […] Cellular “patch-clamp” assays provide the data required by ICH guidelines.

[2] = Caco-2 A-B and B-A permeability test; assay type: in vitro ADME; settings: human
Method: Subsequently, Caco-2 A-B and B-A permeability tests (pH 7.4) were performed on the […]-107 molecules in order to assess their human intestinal permeability and drug efflux. This assay measures the […] rate of transport of a compound across the Caco-2 cell line that is derived from a human colon carcinoma. The cells have characteristics that resemble intestinal epithelial cells such as the formation of a polarized monolayer, well-defined brush border on the apical surface and intercellular junctions.

[3] = system: Aβ oligomer induced changes in membrane trafficking in 21 DIV primary rodent neuronal cultures; experiment: Membrane trafficking assay (MTT) in primary neuronal cultures treated with oligomeric Aβ; assay type: cell-based; settings: read-out: MTT ASSAY EC50
Method: Seven drug candidates (A0101-A0107) (FIG. 2) were tested in a primary cell biological screening assay capable of measuring Aβ oligomer induced changes in membrane trafficking in 21 DIV primary rodent neuronal cultures (see Izzo et al., PLoS ONE 9(11):e111899, 2014). Briefly, cultures were treated with either oligomeric Aβ or oligomeric Aβ plus a candidate compound for 24 hours. Non-Aβ treated cells served as a negative control. Next, a non-membrane permeable dye (MTT) was added to the dishes for 1 hour, during which time the dye can be internalized by endocytosis. At the end of the hour, the dye containing media was removed, the dishes were rinsed extensively with isotonic buffer, and finally, the washed cells were extracted with a Triton X-100 buffer to solubilize membranes and release the dye, which is quantitated.

[4] = target: wild type Aβ42 (Homo sapiens, UniProt P05067); experiment: IMS-MS assay for Aβ42 oligomer formation (arrival time distributions); settings: for Aβ42 wt dodecamer formation (overall conclusion): 10 μM in 10 mM ammonium acetate
Chain of wild type Aβ42 (P05067 672-713 limits assumed): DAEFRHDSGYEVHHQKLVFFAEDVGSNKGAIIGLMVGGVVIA
Method: A physiologically relevant solution of Aβ42 and a drug candidate was incubated for varying periods of time and then loaded into a special spray capillary and the solution nano-electrosprayed, captured by an ion funnel, transported, dehydrated and continuously fed into a quadrapole mass analyser, and detected. This process yielded a mass spectrum. In order to obtain either structural or oligomeric information, the ions were next stored at the end of the funnel and then pulse injected at low energy into a drift cell filled with helium gas and subjected to a low electric field to transport the ions through the cell. The quadrapole is set to pass a particular mass to charge ratio (m=z), and an arrival time distribution (ATD) of the ions at this m=z is obtained at the detector (see, e.g., Bernstein et al., Journal of the American Chemical Society, 127(7):2075-2084, 2005). All molecules were at a concentration of 10 μM in 10 mM ammonium acetate.
By collecting Arrival Time Distributions (ATDs) of each of these charge states, ions of the same mass-to-charge (m/z) ratio were separated by their size and shape.
Using kinetic theory and parameters of the experiment, arrival times are related to an ion's mobility in the drift cell, which is inversely proportional to the ion's collision cross section. Oligomer formation is shown for dimer (n=2) up to dodecamer (n=12) for the z/n=−5/2 charge state.
For example, the peak in z/n=−3 ATD with a collision cross section of 698 Å^2 corresponds to a less compact solution-phase monomer structure. The peak of 642 Å^2 corresponds to a more compact gas phase structure.

[5] = Caco-2, apical to basolateral, pH 7.4, read-out: A-B perm
[6] = Caco-2, basolateral to apical, pH 7.4, read-out: B-A perm

Chain of Human Ether-á-go-go-Related-Gene channel (hERG) (Q12809 whole entry): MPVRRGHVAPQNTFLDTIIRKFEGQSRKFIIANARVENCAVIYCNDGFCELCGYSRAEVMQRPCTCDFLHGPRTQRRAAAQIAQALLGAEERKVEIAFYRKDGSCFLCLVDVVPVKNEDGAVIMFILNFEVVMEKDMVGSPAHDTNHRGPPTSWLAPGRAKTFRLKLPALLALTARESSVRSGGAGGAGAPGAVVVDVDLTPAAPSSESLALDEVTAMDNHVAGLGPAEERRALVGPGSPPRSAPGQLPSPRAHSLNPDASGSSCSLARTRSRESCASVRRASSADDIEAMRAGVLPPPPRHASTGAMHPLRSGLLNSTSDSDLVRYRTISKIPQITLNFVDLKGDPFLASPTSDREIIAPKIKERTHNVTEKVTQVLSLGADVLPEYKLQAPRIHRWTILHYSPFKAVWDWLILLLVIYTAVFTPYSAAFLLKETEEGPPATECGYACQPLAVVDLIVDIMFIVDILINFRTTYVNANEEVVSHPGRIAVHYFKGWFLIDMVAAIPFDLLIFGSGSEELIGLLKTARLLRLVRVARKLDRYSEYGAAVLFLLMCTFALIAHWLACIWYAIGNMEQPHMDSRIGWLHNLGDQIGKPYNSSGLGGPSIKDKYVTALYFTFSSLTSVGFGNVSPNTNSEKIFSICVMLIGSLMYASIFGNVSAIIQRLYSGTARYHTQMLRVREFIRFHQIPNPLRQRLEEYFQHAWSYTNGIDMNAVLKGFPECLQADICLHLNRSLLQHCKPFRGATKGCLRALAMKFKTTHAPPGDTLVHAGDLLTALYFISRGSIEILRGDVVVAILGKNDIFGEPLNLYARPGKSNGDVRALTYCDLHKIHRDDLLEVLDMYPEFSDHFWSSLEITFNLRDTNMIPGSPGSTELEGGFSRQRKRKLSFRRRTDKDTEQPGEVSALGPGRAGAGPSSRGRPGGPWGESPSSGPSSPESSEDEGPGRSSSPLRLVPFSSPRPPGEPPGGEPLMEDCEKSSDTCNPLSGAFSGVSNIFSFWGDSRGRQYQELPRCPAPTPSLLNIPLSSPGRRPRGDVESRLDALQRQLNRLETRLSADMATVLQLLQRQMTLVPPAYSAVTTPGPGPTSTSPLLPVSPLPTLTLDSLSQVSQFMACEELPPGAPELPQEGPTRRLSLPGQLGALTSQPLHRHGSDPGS

SMILES | pIC50 [1] | Papp A→B [2, 5] | Papp B→A [2, 6] | pEC50 [3] | also measured
CN(C)Cc1ccc(CNCc2ccc3c(c2)OCCO3)cc1 [AC0102, (2,3-dihydro-1,4-benzodioxin-6-ylmethyl)({4[(dimethylamino)methyl]-phenyl}methyl)amine] | < 5.00 | 30 ×10⁻⁶ cm/s | 4.5 ×10⁻⁶ cm/s | 5.46 | –
C[C@@H](NCCCc1cccc(C(F)(F)F)c1)c1cccc2ccccc12 [Cinacalcet, reference compound] | – | – | – | – | Aβ42 wt dodecamer formation (overall conclusion) ([4]; IMS-MS): did not inhibit
CN(C)C(=O)C(c1ccccc1)N1CCN(c2ccc(O)cc2)CC1 (centres unmarked) [AC0103, 2-[4-(4-hydroxyphenyl)piperazin-1-yl]-N,N-dimethyl-2 phenylacetamide] | < 5.00 | 61.6 ×10⁻⁶ cm/s | 39.7 ×10⁻⁶ cm/s | 5.89 | –
CC(C)NCC(O)COc1cccc2ccccc12 (centres unmarked) [propranolol, reference compound] | – | 60.6 ×10⁻⁶ cm/s | 24.2 ×10⁻⁶ cm/s | – | –
CC(=O)Nc1ccc(CNCCc2cccc(Cl)c2)cc1 [AC0101, N-[4-({[2-(3-chlorophenyl)ethyl]amino}methyl)phenyl]acetamide] | 5.10 | 101 ×10⁻⁶ cm/s | 41.6 ×10⁻⁶ cm/s | 5.41 | hERG inhibition (in words) ([1]; summary of Table 2, 4th column): moderate potency
N#Cc1ccc(CNCc2cccc(CN3CCCC3)c2)cc1 [AC0107, 4-[({[3-(pyrrolidin-1-ylmethyl)phenyl]methyl}amino)methyl]benzonitrile] | < 5.00 | 18.4 ×10⁻⁶ cm/s | 6.5 ×10⁻⁶ cm/s | 6.35 | relative amounts of earlier arriving structures in z/n=−4 ATD ([4]; 1:10 Aβ42 wt to compound, day 2): reduces; wild type Aβ42 dodecamer formation ([4]; 1:10 Aβ42 wt to compound, day one): inhibited; Aβ42 hexamer growth ([4]; IMS-MS): slowing hexamer growth; Aβ42 wt dodecamer formation (overall conclusion) ([4]; IMS-MS): inhibitor of Aβ42 wt dodecamer formation; dodecamer formation in z/n=−5/2 ATD ([4]; after 29 hours): still inhibited; earlier arriving structures in z/n=−3 ATD ([4]; between 26 and 30 hours incubation time): disappear
CNC(=C[N+](=O)[O-])NCCSCc1ccc(CN(C)C)o1 [ranitidine, reference compound] | – | – | – | – | Papp A→B ([2]; Caco-2, pH 7.4): 0.7 ×10⁻⁶ cm/s; Papp B→A ([2]; Caco-2, pH 7.4): 3.5 ×10⁻⁶ cm/s
COc1cc2c(c(OC)c1OC)-c1ccc(OC)c(=O)cc1[C@@H](NC(C)=O)CC2 [colchicine, reference compound] | – | 0.1 ×10⁻⁶ cm/s | 13.9 ×10⁻⁶ cm/s | – | –
Cc1cc(CN2CC=C(c3ccc(O)cc3)CC2)no1 [AC0106, 4-{1-[(5-methyl-1,2-oxazol-3-yl)methyl]-1,2,3,6tetrahydropyridin-4-yl}phenol] | < 5.00 | 74.4 ×10⁻⁶ cm/s | 42.3 ×10⁻⁶ cm/s | 6.00 | –
N#Cc1cccc(CNCc2ccc(CN3CCOCC3)cc2)c1 [AC0104, 3-[({[4-(morpholin-4 ylmethyl)phenyl]methyl}amino)methyl]benzonitrile] | < 5.00 | 59.4 ×10⁻⁶ cm/s | 13.9 ×10⁻⁶ cm/s | 6.15 | –
